Data: US11174268B2, “Benzenesulfonamide compouds and their use as therapeutic agents” (Xenon Pharmaceuticals Inc., priority 2016, dated 2021)

Experiments:
NaV1.5 = NaV1.5 (Homo sapiens (Human), UniProt Q14524); assay: Sodium Influx Assay (Flux), NaV1.5; details: read-out: Flux NaV1.5 IC50; Trex HEK293 cells, ANG2 dye, inactivated state
NaV1.1 [1] = target: T1, NaV1.1 (Homo sapiens (Human), UniProt P35498); assay: Sodium Influx Assay (Flux), NaV1.1; assay type: cell-based; details: Trex HEK293 cells, ANG2 dye, inactivated state;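 note: channels co-expressed with human β1 subunit and held open by modulators, cells exposed to compounds for one hour at room temperature, IC50 from percent inhibition of influx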
NaV1.6 [2] = target: T2, NaV1.6 (Homo sapiens (Human), UniProt Q9UQD0); assay: Sodium Influx Assay (Flux), NaV1.6; assay type: cell-based; details: Trex HEK293 cells, ANG2 dye, inactivated state;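 note: Tetracycline-induced cells, compounds applied for one hour at room temperature with modulators holding channels open, IC50 from percent inhibition of sodium influx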
NaV1.1 [3] = target: T1, NaV1.1; assay: Electrophysiological Assay (EP), patch voltage clamp, NaV1.1; assay type: cell-based; details: HEK-293 cells, whole-cell patch clamp;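 note: sodium current block measured at ambient temperature, holding at fully inactivating potential, 20 ms repolarization to −150 mV before test pulse, versus 0.5% DMSO control currents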
NaV1.6 [4] = target: T2, NaV1.6; assay: Electrophysiological Assay (EP), patch voltage clamp, NaV1.6; assay type: cell-based; details: HEK-293 cells, whole-cell patch clamp;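 note: sodium current recorded at ambient temperature, channels held inactivated then briefly repolarized to −150 mV for 20 ms before a test pulse, control currents in 0.5% DMSO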

T2 sequence (Q9UQD0 whole entry): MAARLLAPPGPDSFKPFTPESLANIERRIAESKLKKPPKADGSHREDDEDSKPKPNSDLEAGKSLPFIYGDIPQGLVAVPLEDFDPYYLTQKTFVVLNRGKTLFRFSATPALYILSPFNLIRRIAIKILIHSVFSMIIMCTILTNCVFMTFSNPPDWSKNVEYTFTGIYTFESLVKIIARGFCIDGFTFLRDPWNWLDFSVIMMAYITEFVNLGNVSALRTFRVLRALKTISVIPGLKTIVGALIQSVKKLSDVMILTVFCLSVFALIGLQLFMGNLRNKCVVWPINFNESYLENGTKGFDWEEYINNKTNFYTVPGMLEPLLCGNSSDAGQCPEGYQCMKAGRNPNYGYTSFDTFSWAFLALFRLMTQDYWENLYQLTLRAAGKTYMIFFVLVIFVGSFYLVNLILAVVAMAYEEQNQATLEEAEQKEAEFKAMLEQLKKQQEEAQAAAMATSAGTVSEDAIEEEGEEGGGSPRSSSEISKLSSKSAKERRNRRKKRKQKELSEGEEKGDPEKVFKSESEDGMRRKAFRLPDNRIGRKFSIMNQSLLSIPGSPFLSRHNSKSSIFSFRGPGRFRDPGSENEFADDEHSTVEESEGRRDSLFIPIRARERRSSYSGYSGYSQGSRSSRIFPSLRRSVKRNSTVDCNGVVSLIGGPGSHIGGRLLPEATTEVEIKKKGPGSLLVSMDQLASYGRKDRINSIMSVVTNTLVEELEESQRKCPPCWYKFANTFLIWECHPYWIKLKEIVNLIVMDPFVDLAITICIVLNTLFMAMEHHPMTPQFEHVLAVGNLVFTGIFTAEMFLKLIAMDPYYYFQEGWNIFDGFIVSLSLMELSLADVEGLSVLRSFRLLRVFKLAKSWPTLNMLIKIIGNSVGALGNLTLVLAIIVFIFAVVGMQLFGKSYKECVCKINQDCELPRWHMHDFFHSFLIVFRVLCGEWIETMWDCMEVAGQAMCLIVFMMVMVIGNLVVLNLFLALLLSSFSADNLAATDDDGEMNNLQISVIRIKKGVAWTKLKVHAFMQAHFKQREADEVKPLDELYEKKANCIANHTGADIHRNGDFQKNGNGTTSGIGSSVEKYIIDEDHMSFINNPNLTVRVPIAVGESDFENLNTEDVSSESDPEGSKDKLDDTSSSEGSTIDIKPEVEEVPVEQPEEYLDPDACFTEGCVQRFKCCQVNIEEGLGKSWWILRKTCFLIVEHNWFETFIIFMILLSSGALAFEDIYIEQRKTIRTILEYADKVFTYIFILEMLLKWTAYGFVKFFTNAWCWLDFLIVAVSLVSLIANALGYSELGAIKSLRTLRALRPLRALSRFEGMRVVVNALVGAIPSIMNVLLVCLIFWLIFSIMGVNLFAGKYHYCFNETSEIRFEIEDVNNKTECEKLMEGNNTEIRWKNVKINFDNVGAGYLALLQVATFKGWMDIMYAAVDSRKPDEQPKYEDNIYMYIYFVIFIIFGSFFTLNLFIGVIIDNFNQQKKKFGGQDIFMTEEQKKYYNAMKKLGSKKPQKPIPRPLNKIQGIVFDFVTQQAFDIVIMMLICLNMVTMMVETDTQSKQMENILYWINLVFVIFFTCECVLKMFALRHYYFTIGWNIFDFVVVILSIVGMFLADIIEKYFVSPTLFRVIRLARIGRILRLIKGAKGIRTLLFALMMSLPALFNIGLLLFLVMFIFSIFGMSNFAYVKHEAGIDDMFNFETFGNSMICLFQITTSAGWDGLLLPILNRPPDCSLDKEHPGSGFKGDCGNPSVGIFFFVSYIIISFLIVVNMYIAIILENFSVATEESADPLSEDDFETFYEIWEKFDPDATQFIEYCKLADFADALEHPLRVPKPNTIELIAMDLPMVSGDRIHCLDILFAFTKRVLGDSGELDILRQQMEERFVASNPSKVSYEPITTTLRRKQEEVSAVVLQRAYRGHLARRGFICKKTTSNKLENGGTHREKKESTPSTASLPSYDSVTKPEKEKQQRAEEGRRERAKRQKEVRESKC
NaV1.5, sequence (Q14524 other isoform, or with tags, fused parts or gaps): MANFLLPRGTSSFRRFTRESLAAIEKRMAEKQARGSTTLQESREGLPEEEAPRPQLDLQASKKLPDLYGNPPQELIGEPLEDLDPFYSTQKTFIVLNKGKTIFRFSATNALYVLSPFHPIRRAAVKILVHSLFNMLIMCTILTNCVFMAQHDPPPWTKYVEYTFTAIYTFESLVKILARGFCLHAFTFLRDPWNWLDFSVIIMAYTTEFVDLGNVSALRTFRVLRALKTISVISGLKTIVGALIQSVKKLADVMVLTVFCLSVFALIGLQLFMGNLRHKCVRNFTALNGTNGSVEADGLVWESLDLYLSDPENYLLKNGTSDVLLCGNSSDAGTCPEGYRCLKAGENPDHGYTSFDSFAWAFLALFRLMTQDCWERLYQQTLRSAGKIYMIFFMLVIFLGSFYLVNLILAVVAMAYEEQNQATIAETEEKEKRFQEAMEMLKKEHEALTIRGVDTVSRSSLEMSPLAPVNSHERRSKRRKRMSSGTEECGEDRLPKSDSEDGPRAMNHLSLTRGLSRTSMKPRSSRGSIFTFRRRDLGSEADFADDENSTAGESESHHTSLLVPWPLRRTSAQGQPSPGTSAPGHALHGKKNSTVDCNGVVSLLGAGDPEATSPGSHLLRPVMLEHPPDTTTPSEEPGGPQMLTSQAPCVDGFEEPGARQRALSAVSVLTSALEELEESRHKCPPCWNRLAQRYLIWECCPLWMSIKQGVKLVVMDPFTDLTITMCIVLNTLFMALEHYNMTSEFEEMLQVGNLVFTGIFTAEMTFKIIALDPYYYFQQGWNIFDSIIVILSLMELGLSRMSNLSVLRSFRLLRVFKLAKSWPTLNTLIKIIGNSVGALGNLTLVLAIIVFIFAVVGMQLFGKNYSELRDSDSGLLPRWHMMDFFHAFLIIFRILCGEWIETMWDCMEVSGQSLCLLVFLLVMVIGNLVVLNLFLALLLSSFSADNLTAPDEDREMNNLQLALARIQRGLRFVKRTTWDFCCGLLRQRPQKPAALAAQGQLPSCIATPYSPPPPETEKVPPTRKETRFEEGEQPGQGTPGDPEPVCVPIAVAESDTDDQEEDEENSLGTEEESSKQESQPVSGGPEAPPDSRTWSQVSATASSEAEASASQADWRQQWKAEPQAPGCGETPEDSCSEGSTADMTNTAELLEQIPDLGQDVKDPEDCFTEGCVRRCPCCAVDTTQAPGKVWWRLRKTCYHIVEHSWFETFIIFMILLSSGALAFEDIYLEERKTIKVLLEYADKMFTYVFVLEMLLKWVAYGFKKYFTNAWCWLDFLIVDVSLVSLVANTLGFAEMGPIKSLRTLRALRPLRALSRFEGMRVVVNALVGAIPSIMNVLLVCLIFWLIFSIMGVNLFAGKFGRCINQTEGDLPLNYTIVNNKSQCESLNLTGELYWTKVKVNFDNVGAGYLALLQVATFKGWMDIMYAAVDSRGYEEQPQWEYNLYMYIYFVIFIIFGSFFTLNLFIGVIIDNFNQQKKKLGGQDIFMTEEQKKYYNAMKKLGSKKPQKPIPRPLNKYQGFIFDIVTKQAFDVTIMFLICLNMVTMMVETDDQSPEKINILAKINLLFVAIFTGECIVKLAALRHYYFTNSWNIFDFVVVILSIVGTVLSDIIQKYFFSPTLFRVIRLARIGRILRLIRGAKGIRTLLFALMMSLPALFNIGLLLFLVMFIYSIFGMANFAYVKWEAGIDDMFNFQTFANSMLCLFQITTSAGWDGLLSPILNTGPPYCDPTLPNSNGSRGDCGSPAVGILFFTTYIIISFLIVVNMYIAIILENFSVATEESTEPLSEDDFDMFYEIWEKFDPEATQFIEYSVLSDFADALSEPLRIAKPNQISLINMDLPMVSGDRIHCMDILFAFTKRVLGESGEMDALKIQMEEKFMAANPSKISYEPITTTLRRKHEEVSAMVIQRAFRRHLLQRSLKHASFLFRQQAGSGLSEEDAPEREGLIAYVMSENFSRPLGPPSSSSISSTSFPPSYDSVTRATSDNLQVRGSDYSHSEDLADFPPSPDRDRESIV

SMILES	IC50 (NaV1.5) [µM]	IC50 (NaV1.1 [1]) [µM]	IC50 (NaV1.6 [2]) [µM]	IC50 (NaV1.1 [3]) [µM]	IC50 (NaV1.6 [4]) [µM]
O=S(=O)(Nc1nccs1)c1cc(Cl)c(N[C@H](CN2CCC2)c2ccccc2)cc1F [Example 67, (S)-4-((2-(azetidin-1-yl)-1-phenylethyl)amino)-5-chloro-2-fluoro-N-(thiazol-2-yl)benzenesulfonamide 2,2,2-trifluoroacetate]	30	10.6	0.426	10	0.119
O=S(=O)(Nc1nccs1)c1cc(Cl)c(N[C@H](CN2CCCC2)c2ccccc2)cc1F [Example 70, (S)-5-chloro-2-fluoro-4-((1-phenyl-2-(pyrrolidin-1-yl)ethyl)amino)-N-(thiazol-2-yl)benzenesulfonamide]	30	30	0.181	10	0.036
O=S(=O)(Nc1cccc(F)n1)c1cc(Cl)c(N[C@H](CN2CCCC2)c2ccccc2)cc1F [Example 72, (S)-5-chloro-2-fluoro-N-(6-fluoropyridin-2-yl)-4-((1-phenyl-2-(pyrrolidin-1-yl)ethyl)amino)benzenesulfonamide 2,2,2-trifluoroacetate]	30	30	7.11	10	0.955
O=S(=O)(Nc1cscn1)c1cc(Cl)c(N[C@H](CN2CCCC2)c2ccccc2)cc1F [Example 73, (S)-5-chloro-2-fluoro-4-((1-phenyl-2-(pyrrolidin-1-yl)ethyl)amino)-N-(thiazol-4-yl)benzenesulfonamide]	30	23.1	3.87	10	1.14
O=S(=O)(Nc1nccs1)c1cc(Cl)c(NC(CN2CCOCC2)c2ccccc2)cc1F (stereo not drawn) [Example 74, 5-chloro-2-fluoro-4-((2-morpholino-1-phenylethyl)amino)-N-(thiazol-2-yl)benzenesulfonamide 2,2,2-trifluoroacetate]	30	2.52	0.521	1.85	0.052
C[C@H](Nc1cc(F)c(S(=O)(=O)Nc2nccs2)cc1Cl)c1ccccc1Cl [Example 78, (S)-5-chloro-4-((1-(2-chlorophenyl)ethyl)amino)-2-fluoro-N-(thiazol-2-yl)benzenesulfonamide]	7.01	4.17	0.234	3.1	0.015
C[C@H](Nc1ccc(S(=O)(=O)Nc2nccs2)cc1Cl)c1ccccc1F [Example 79, (S)-3-chloro-4-((1-(2-fluorophenyl)ethyl)amino)-N-(thiazol-2-yl)benzenesulfonamide]	2.55	1.54	0.237	4.41	0.039
O=S(=O)(Nc1nccs1)c1cc(Cl)c(O[C@H](c2ccccc2)C(F)(F)F)cc1F [Example 80, (R)-5-chloro-2-fluoro-N-(thiazol-2-yl)-4-(2,2,2-trifluoro-1-phenylethoxy)benzenesulfonamide]	5.75	11.1	1.74	10	0.099
CCC(Nc1ccc(S(=O)(=O)Nc2nccs2)cc1Cl)c1ccccn1 (stereo not drawn) [Example 81, 3-chloro-4-((1-(pyridin-2-yl)propyl)amino)-N-(thiazol-2-yl)benzenesulfonamide]	30	22.5	0.652	10	0.143
C[C@H](Oc1ccc(S(=O)(=O)Nc2ncns2)cc1Cl)c1ccccc1 [Example 88, (S)-3-chloro-4-(1-phenylethoxy)-N-(1,2,4-thiadiazol-5-yl)benzenesulfonamide]	18.2	30	1.04	10	0.184
CC[C@H](Nc1cc(F)c(S(=O)(=O)Nc2cscn2)cc1Cl)c1ccccc1 [Example 89, (S)-5-chloro-2-fluoro-4-((1-phenylpropyl)amino)-N-(thiazol-4-yl)benzenesulfonamide]	9.09	3.85	0.948	10	0.239
O=S(=O)(Nc1nccs1)c1ccc(N[C@@H](CO)c2ccccc2)c(Cl)c1 [Example 91, (R)-3-chloro-4-((2-hydroxy-1-phenylethyl)amino)-N-(thiazol-2-yl)benzenesulfonamide]	30	10.7	0.927	10	0.341
O=S(=O)(Nc1cscn1)c1cc(Cl)c(NCc2cccc3ccncc23)cc1F [Example 96, 5-chloro-2-fluoro-4-((isoquinolin-8-ylmethyl)amino)-N-(thiazol-4-yl)benzenesulfonamide 2,2,2-trifluoroacetate]	16	12.6	0.239	10	0.098
C[C@H](Oc1cc(F)c(S(=O)(=O)Nc2cscn2)cc1Cl)c1ccccc1F [Example 101, (S)-5-chloro-2-fluoro-4-(1-(2-fluorophenyl)ethoxy)-N-(thiazol-4-yl)benzenesulfonamide]	4.66	9.57	0.814	10	0.462
O=S(=O)(Nc1nccs1)c1ccc(NC2(c3ccccc3)COC2)c(Cl)c1 [Example 103, 3-chloro-4-((3-phenyloxetan-3-yl)amino)-N-(thiazol-2-yl)benzenesulfonamide]	28.8	16.6	2.91	10	0.796
O=S(=O)(Nc1nccs1)c1ccc(NC2(c3ccccc3)CCC2)c(Cl)c1 [Example 104, 3-chloro-4-((1-phenylcyclobutyl)amino)-N-(thiazol-2-yl)benzenesulfonamide]	6.29	4.43	0.582	4.51	0.153
O=S(=O)(Nc1nccs1)c1cc(Cl)c(NC2(c3ccccc3)CCC2)cc1F [Example 105, 5-chloro-2-fluoro-4-((1-phenylcyclobutyl)amino)-N-(thiazol-2-yl)benzenesulfonamide]	10.6	3.73	0.564	3.6	0.027
O=S(=O)(Nc1nccs1)c1cc(Cl)c(NC2(c3ccccc3F)CCC2)cc1F [Example 107, 5-chloro-2-fluoro-4-((1-(2-fluorophenyl)cyclobutyl)amino)-N-(thiazol-2-yl)benzenesulfonamide]	7.4	10.3	0.656	8.62	0.138
C[C@H](Oc1cc(F)c(S(=O)(=O)Nc2nccs2)cc1Cl)c1cccc(F)c1 [Example 114, (S)-5-chloro-2-fluoro-4-(1-(3-fluorophenyl)ethoxy)-N-(thiazol-2-yl)benzenesulfonamide]	4.64	5.05	0.977	10	0.255
C[C@H](Oc1cc(F)c(S(=O)(=O)Nc2nccs2)cc1Cl)c1ccccc1 [Example 115, (S)-5-chloro-2-fluoro-4-(1-phenylethoxy)-N-(thiazol-2-yl)benzenesulfonamide]	9.93	17.5	1.39	10	0.135
C[C@H](Oc1cc(F)c(S(=O)(=O)Nc2nccs2)cc1Cl)c1ccccc1Cl [Example 117, (S)-5-chloro-4-(1-(2-chlorophenyl)ethoxy)-2-fluoro-N-(thiazol-2-yl)benzenesulfonamide]	6.22	5.89	0.53	6.78	0.055
C[C@H](Oc1cc(F)c(S(=O)(=O)Nc2nccs2)cc1Cl)c1c(F)cccc1F [Example 119, (S)-5-chloro-4-(1-(2,6-difluorophenyl)ethoxy)-2-fluoro-N-(thiazol-2-yl)benzenesulfonamide]	1.82	5.72	0.31	8.94	0.023
C[C@H](Oc1cc(F)c(S(=O)(=O)Nc2cscn2)cc1Cl)c1c(F)cccc1F [Example 120, (S)-5-chloro-4-(1-(2,6-difluorophenyl)ethoxy)-2-fluoro-N-(thiazol-4-yl)benzenesulfonamide]	2.42	24.3	1.39	10	0.717
O=S(=O)(Nc1nccs1)c1cc(Cl)c(OCc2ccccc2F)cc1F [Example 122, 5-chloro-2-fluoro-4-((2-fluorobenzyl)oxy)-N-(thiazol-2-yl)benzenesulfonamide]	30	30	1.65	10	0.121
C[C@H](Oc1cc(F)c(S(=O)(=O)Nc2cscn2)cc1Cl)c1ccccc1Cl [Example 123, (S)-5-chloro-4-(1-(2-chlorophenyl)ethoxy)-2-fluoro-N-(thiazol-4-yl)benzenesulfonamide]	2.15	5.78	1.17	10	0.716
O=S(=O)(Nc1cscn1)c1c(F)cc(NCc2c(Cl)cccc2CN2CC(F)C2)cc1F [Example 129, 4-((2-chloro-6-((3-fluoroazetidin-1-yl)methyl)benzyl)amino)-2,6-difluoro-N-(thiazol-4-yl)benzenesulfonamide]	30	4.24	0.322	10	0.252
Cc1c(NCc2c(F)cccc2CN2CC(F)C2)ccc(S(=O)(=O)Nc2cscn2)c1F [Example 130, 2-fluoro-4-((2-fluoro-6-((3-fluoroazetidin-1-yl)methyl)benzyl)amino)-3-methyl-N-(thiazol-4-yl)benzenesulfonamide]	17.7	11.7	0.307	10	0.1
